Results reported in ChEMBL document CHEMBL1153258, “Synthesis and antiviral activity of 3-substituted imidazo[1,2-a]pyridines” (Bioorg Med Chem Lett, 1994).
Converted amounts (≈) assume the structure as drawn.

Columns and labels:
E6SM [1] = assay: Cytotoxicity (to alter cell morphology) against E6SM cell cultures; type: functional; conditions: Homo sapiens
E6SM [2] = assay: Antiviral activity (to reduce virus-induced cytopathogenicity) against Herpes simplex virus-1 TK-B2006 in E6SM cell cultures; type: functional; conditions: Homo sapiens
E6SM [3] = assay: Antiviral activity (to reduce virus-induced cytopathogenicity) against Herpes simplex virus-1 TK-VMW1837 in E6SM cell cultures; type: functional; conditions: Homo sapiens
E6SM [4] = assay: Antiviral activity (to reduce virus-induced cytopathogenicity) against Herpes simplex virus-1(KOS) in E6SM cell cultures; type: functional; conditions: Homo sapiens
E6SM [5] = assay: Antiviral activity (to reduce virus-induced cytopathogenicity) against Herpes simplex virus-2 (G) in E6SM cell cultures; type: functional; conditions: Homo sapiens
E6SM [6] = assay: Antiviral activity (to reduce virus-induced cytopathogenicity) against Vaccinia virus in E6SM cell cultures; type: functional; conditions: Homo sapiens
E6SM [7] = assay: Antiviral activity (to reduce virus-induced cytopathogenicity) against Vesicular stomatitis virus in E6SM cell cultures; type: functional; conditions: Homo sapiens
HeLa [8] = assay: Antiviral activity (to reduce virus-induced cytopathogenicity) against Coxsackie virus B4 in HeLa cells; type: functional; conditions: Homo sapiens
HeLa [9] = assay: Antiviral activity (to reduce virus-induced cytopathogenicity) against Polio virus-I in HeLa cells; type: functional; conditions: Homo sapiens
HeLa [10] = assay: Antiviral activity (to reduce virus-induced cytopathogenicity) against Vesicular stomatitis virus in HeLa cells; type: functional; conditions: Homo sapiens
HeLa [11] = assay: Cytotoxicity (to alter cell morphology) against HeLa cells; type: functional; conditions: Homo sapiens
Vero [12] = assay: Minimum cytotoxic concentration (to alter cell morphology) against vero cells; type: functional; conditions: Chlorocebus sabaeus
Vero [13] = assay: Antiviral activity (to reduce virus-induced cytopathogenicity) against Parainfluenza-3 virus in vero cells; type: functional; conditions: Chlorocebus sabaeus
Vero [14] = assay: Antiviral activity (to reduce virus-induced cytopathogenicity) against Reovirus-1 in vero cells; type: functional; conditions: Chlorocebus sabaeus
Vero [15] = assay: Antiviral activity (to reduce virus-induced cytopathogenicity) against forest virus in vero cells; type: functional; conditions: Chlorocebus sabaeus
Vero [16] = assay: Antiviral activity (to reduce virus-induced cytopathogenicity) against Sindbis virus in vero cells; type: functional; conditions: Chlorocebus sabaeus
Vero [17] = assay: Antiviral activity (to reduce virus-induced cytopathogenicity) against Coxsackie virus in vero cells; type: functional; conditions: Chlorocebus sabaeus
HEL [18] = assay: Cytotoxicity (to alter cell morphology) against Cytomegalovirus in human embryonic lung (HEL) cells; type: functional
HEL [19] = assay: Cytotoxicity (to alter cell morphology) against Varicella-Zoster virus in human embryonic lung (HEL) cells; type: functional
HEL [20] = assay: Antiviral activity against Cytomegalovirus (AD-169 strain) to reduce plaque formation in human embryonic lung (HEL) cells; type: functional, cell-based
HEL [21] = assay: Antiviral activity against Cytomegalovirus (Davis strain) to reduce plaque formation in human embryonic lung (HEL) cells; type: functional, cell-based
HEL [22] = assay: Antiviral activity against thymidine kinase-negative (TK-) O7/1 strain of Varicella zoster virus to reduce plaque formation in human embryonic lung (HEL) cells; type: functional, cell-based
HEL [23] = assay: Antiviral activity against thymidine kinase-negative (TK-) YS/R strain of Varicella zoster virus to reduce plaque formation in human embryonic lung (HEL) cells; type: functional, cell-based
HEL [24] = assay: Antiviral activity against thymidine kinase-positive (TK+) OKA strain of Varicella zoster virus to reduce plaque formation in human embryonic lung (HEL) cells; type: functional, cell-based
HEL [25] = assay: Antiviral activity against thymidine kinase-positive (TK+) YS strain of Varicella zoster virus to reduce plaque formation in human embryonic lung (HEL) cells; type: functional, cell-based
[26] = Cytotoxicity (to reduce cell growth) against Cytomegalovirus in human embryonic lung (HEL) cells; type: cell-based
[27] = Cytotoxicity (to reduce cell growth) against Varicella-Zoster virus in human embryonic lung (HEL) cells; type: cell-based

Row | SMILES | MCC (E6SM [1]) | MIC (E6SM [2]) | MIC (E6SM [3]) | MIC (E6SM [4]) | MIC (E6SM [5]) | MIC (E6SM [6]) | MIC (E6SM [7]) | MIC (HeLa [8]) | MIC (HeLa [9]) | MIC (HeLa [10]) | MCC (HeLa [11]) | MCC (Vero [12]) | MIC (Vero [13]) | MIC (Vero [14]) | MIC (Vero [15]) | MIC (Vero [16]) | MIC (Vero [17]) | MCC (HEL [18]) | MCC (HEL [19]) | IC50 (HEL [20]) | further results
1 | Nc1ncnc2c1ncn2C[C@H](O)CO [(S)-DHPA] | > 400 µg/mL | 200 mg/L (≈ 956 µM) | 100 mg/L (≈ 478 µM) | 100 mg/L (≈ 478 µM) | > 400 mg/L | 40 mg/L (≈ 191 µM) | 40 mg/L (≈ 191 µM) | > 400 mg/L | > 400 mg/L | 70 mg/L (≈ 335 µM) | > 400 µg/mL | > 400 µg/mL | 20 mg/L (≈ 95.6 µM) | 40 mg/L (≈ 191 µM) | > 400 mg/L | > 400 mg/L | > 400 mg/L |  |  |  | 
2 | Cc1ccn2c(CSCCO)cnc2c1 | > 200 µg/mL | > 100 mg/L | > 100 mg/L | > 200 mg/L | > 100 mg/L | > 100 mg/L | > 100 mg/L | > 10 mg/L | > 10 mg/L | > 10 mg/L | 10 µg/mL | 100 µg/mL | 70 mg/L (≈ 315 µM) | > 40 mg/L | > 100 mg/L | 70 mg/L (≈ 315 µM) | > 100 mg/L | 40 µg/mL | 40 µg/mL | > 10 mg/L | IC50 (HEL [21]): > 10 mg/L; IC50 (HEL [22]): 4 mg/L (≈ 18 µM); IC50 (HEL [23]): 7 mg/L (≈ 31.5 µM); IC50 (HEL [24]): 10 mg/L (≈ 45 µM); IC50 (HEL [25]): 6 mg/L (≈ 27 µM); CC50 [26]: 70 mg/L (≈ 315 µM); CC50 [27]: 70 mg/L (≈ 315 µM)
3 | Nc1nccc2c1ncn2[C@@H]1O[C@H](CO)[C@@H](O)[C@H]1O | > 400 µg/mL | 200 mg/L (≈ 751 µM) | > 400 mg/L | > 400 mg/L | 300 mg/L (≈ 1130 µM) | 0.7 mg/L (≈ 2.63 µM) | 0.7 mg/L (≈ 2.63 µM) | > 400 mg/L | > 400 mg/L | 2 mg/L (≈ 7.51 µM) | > 400 µg/mL | > 400 µg/mL | 0.7 mg/L (≈ 2.63 µM) | 2 mg/L (≈ 7.51 µM) | > 400 mg/L | 4 mg/L (≈ 15 µM) | > 400 mg/L |  |  |  | 
4 | O=c1[nH]c(=O)n([C@H]2C[C@H](O)[C@@H](CO)O2)cc1/C=C/Br [BRIVUDINE] | > 400 µg/mL | 2 mg/L (≈ 6 µM) | 1 mg/L (≈ 3 µM) | 0.004 mg/L (≈ 0.012 µM) | 20 mg/L (≈ 60 µM) | 0.2 mg/L (≈ 0.6 µM) | > 400 mg/L | > 400 mg/L | > 400 mg/L | > 400 mg/L | > 400 µg/mL | > 400 µg/mL | > 400 mg/L | > 400 mg/L | > 400 mg/L | > 400 mg/L | > 400 mg/L |  |  |  | 
5 | Nc1nc2c(ncn2COCCO)c(=O)[nH]1 [ACYCLOVIR] |  |  |  |  |  |  |  |  |  |  |  |  |  |  |  |  |  |  | > 40 µg/mL |  | IC50 (HEL [23]): 9 mg/L (≈ 40 µM); IC50 (HEL [24]): 0.23 mg/L (≈ 1.02 µM); IC50 (HEL [25]): 0.32 mg/L (≈ 1.42 µM); CC50 [27]: > 50 mg/L
6 | Nc1nc2c(ncn2COC(CO)CO)c(=O)[nH]1 [GANCICLOVIR] |  |  |  |  |  |  |  |  |  |  |  |  |  |  |  |  |  | > 100 µg/mL |  | 2 mg/L (≈ 7.84 µM) | IC50 (HEL [21]): 1.5 mg/L (≈ 5.88 µM); CC50 [26]: 200 mg/L (≈ 784 µM)
7 | NC(=O)c1ncn([C@@H]2O[C@H](CO)[C@@H](O)[C@H]2O)n1 [RIBAVIRIN] | > 400 µg/mL | 300 mg/L (≈ 1230 µM) | 300 mg/L (≈ 1230 µM) | > 400 mg/L | 150 mg/L (≈ 614 µM) | 70 mg/L (≈ 287 µM) | 150 mg/L (≈ 614 µM) | 70 mg/L (≈ 287 µM) | 70 mg/L (≈ 287 µM) | 20 mg/L (≈ 81.9 µM) | > 400 µg/mL | > 400 µg/mL | 70 mg/L (≈ 287 µM) | 100 mg/L (≈ 409 µM) | 70 mg/L (≈ 287 µM) | 70 mg/L (≈ 287 µM) | 300 mg/L (≈ 1230 µM) |  |  |  | 
8 | OCCSCc1c(-c2ccccc2)nc2ccccn12 | > 200 µg/mL | > 40 mg/L | > 40 mg/L | 100 mg/L (≈ 352 µM) | 70 mg/L (≈ 246 µM) | 70 mg/L (≈ 246 µM) | > 40 mg/L | > 100 mg/L | > 100 mg/L | > 100 mg/L | > 100 µg/mL | 40 µg/mL | > 10 mg/L | > 10 mg/L | 20 mg/L (≈ 70.3 µM) | 20 mg/L (≈ 70.3 µM) | 70 mg/L (≈ 246 µM) | > 40 µg/mL | > 40 µg/mL | 20 mg/L (≈ 70.3 µM) | IC50 (HEL [21]): 25 mg/L (≈ 87.9 µM); IC50 (HEL [22]): 26 mg/L (≈ 91.4 µM); IC50 (HEL [23]): 10 mg/L (≈ 35.2 µM); IC50 (HEL [24]): 28 mg/L (≈ 98.5 µM); IC50 (HEL [25]): 35 mg/L (≈ 123 µM); CC50 [26]: 80 mg/L (≈ 281 µM); CC50 [27]: 80 mg/L (≈ 281 µM)
9 | OCCOCc1c(-c2ccccc2)nc2ccccn12 | > 200 µg/mL | > 100 mg/L | > 100 mg/L | > 200 mg/L | > 200 mg/L | > 200 mg/L | > 100 mg/L | > 200 mg/L | > 200 mg/L | > 200 mg/L | 400 µg/mL | 400 µg/mL | 70 mg/L (≈ 261 µM) | > 200 mg/L | > 200 mg/L | > 200 mg/L | > 200 mg/L | 100 µg/mL | > 40 µg/mL | > 40 mg/L | IC50 (HEL [21]): > 40 mg/L; IC50 (HEL [22]): > 40 mg/L; IC50 (HEL [23]): > 40 mg/L; IC50 (HEL [24]): > 40 mg/L; IC50 (HEL [25]): > 40 mg/L; CC50 [26]: 130 mg/L (≈ 485 µM); CC50 [27]: 135 mg/L (≈ 503 µM)
10 | Cc1ccn2c(COCCO)cnc2c1 | > 400 µg/mL | > 400 mg/L | > 400 mg/L | > 400 mg/L | > 400 mg/L | > 400 mg/L | > 400 mg/L | > 200 mg/L | > 200 mg/L | > 200 mg/L | 200 µg/mL | > 200 µg/mL | > 200 mg/L | > 200 mg/L | > 200 mg/L | > 200 mg/L | > 200 mg/L | > 40 µg/mL | > 40 µg/mL | > 40 mg/L | IC50 (HEL [21]): > 40 mg/L; IC50 (HEL [22]): > 40 mg/L; IC50 (HEL [23]): > 40 mg/L; IC50 (HEL [24]): > 40 mg/L; IC50 (HEL [25]): > 40 mg/L; CC50 [26]: > 200 mg/L; CC50 [27]: > 200 mg/L
